According to patent publication US20160002248A1, “GLS1 INHIBITORS FOR TREATING DISEASE” (Board of Regents, The University of Texas System, priority 2014, published 2016):

Experiments:
[1] = target: T1, purified recombinant human GAC (GLS1) (Homo sapiens, UniProt O94925); test: GLS1 Enzymatic Activity Assay (dual-coupled enzymatic assay); type: biochemical
T1 sequence (O94925 55-598 isoform O94925-3 limits assumed): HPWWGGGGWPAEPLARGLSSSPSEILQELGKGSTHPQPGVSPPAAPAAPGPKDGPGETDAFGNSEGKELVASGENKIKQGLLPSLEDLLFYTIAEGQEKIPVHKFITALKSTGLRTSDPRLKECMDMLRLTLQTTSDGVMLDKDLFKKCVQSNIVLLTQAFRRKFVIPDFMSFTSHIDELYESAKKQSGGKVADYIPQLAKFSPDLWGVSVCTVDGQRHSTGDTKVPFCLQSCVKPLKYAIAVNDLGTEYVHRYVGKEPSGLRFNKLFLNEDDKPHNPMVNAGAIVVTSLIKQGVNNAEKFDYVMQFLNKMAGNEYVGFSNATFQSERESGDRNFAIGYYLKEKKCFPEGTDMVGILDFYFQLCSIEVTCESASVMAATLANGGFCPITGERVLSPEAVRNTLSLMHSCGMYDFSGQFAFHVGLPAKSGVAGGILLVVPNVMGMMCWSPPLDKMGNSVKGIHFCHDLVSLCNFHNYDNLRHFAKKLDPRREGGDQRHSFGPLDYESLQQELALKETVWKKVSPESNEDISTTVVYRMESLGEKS
How it was run: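 GAC activity measured by coupling glutamate to glutamate oxidase and HRP, generating resorufin from Amplex UltraRed. Enzyme (2 nM) preincubated with 50 mM potassium phosphate 10 min at room temperature, then inhibitor 10 min; 1 mM glutamine substrate, 1% DMSO. Fluorescence 530/590 nm, kinetic or 20-min endpoint; IC50 from four-parameter logistic fit.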

[2] = tested on: A549 cells; test: Proliferation Assay (A549 cell viability, Cell Titer Fluor); type: cell-based; details: Homo sapiens, 72 hours
How it was run: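 Fluorescence read-out (Cell Titer Fluor, 30 min at 37 °C after reagent) after 72 h compound exposure of A549 cells; EC50 by four-parameter logistic curve fit. Cells: 1000/well, RPMI 1640 + 10% dialyzed FBS, 0.5% DMSO final.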

Row | Compound | IC50 [1] [µM] | EC50 [2] [µM]
1 | Cc1ccc(CNC(=O)c2cn(CCCCc3cc4cc(-c5ccccc5F)[nH]c4nn3)nn2)cn1 [Example 190, 1-{4-[6-(2-fluorophenyl)-7H-pyrrolo[2,3-c]pyridazin-3-yl]butyl}-N-[(6-methylpyridin-3-yl)methyl]-1H-1,2,3-triazole-4-carboxamide] | < 0.1 | < 0.1
2 | O=C(NCc1cc(C(F)(F)F)ccn1)c1cn(CCCCc2cc3cc(-c4ccccc4F)[nH]c3nn2)nn1 [Example 191] | < 0.1 | 0.1 to 0.5
3 | CC(C)(C)C(=O)N1CC(c2cc3cc(CCCCn4cc(C(=O)NCc5cc(OC(F)(F)F)ccc5F)nn4)nnc3[nH]2)C1 [Example 192, 1-(4-(6-[1-(2,2-dimethylpropanoyl)azetidin-3-yl]-7H-pyrrolo[2,3-c]pyridazin-3-yl}butyl)-N-{[2-fluoro-5-(trifluoromethoxy)phenyl]methyl}-1H-1,2,3-triazole-4-carboxamide] | < 0.1 | < 0.1
4 | O=C(NCc1ccc(C(F)(F)F)cn1)c1cn(CCCCc2cc3cc(-c4ccccc4F)[nH]c3nn2)nn1 [Example 193, 1-(4-[6-(2-fluorophenyl)-7H-pyrrolo[2,3-c]pyridazin-3-yl]butyl}-N-{[5-(trifluoromethyl)pyridin-2-yl]methyl}-1H-1,2,3-triazole-4-carboxamide] | < 0.1 | 0.1 to 0.5
5 | CC(C)(C)OC(=O)N1CC(c2cc3cc(CCCCn4cc(C(=O)NCc5cc(C(F)(F)F)ccn5)nn4)nnc3[nH]2)C1 [Example 194, tert-butyl 3-(3-{4-[4-({[4-(trifluoromethyl)pyridin-2-yl]methyl}carbamoyl)-1H-1,2,3-triazol-1-yl]butyl}-7H-pyrrolo[2,3-c]pyridazin-6-yl)azetidine-1-carboxylate] | < 0.1 | < 0.1
6 | CC(C)(C)OC(=O)N1CC=C(c2c(C3CC3)[nH]c3nnc(CCCCn4cc(C(=O)NCc5cccc(OC(F)(F)F)c5)nn4)cc23)CC1 [Example 197, tert-butyl 4-(6-cyclopropyl-3-{4-[4-({[3-(trifluoromethoxy)phenyl]methyl}carbamoyl)-1H-1,2,3-triazol-1-yl]butyl}-7H-pyrrolo[2,3-c]pyridazin-5-yl)-1,2,3,6-tetrahydropyridine-1-carboxylate] | < 0.1 | < 0.1

Second part, the compound after the results:

Row | IC50 [1] [µM] | EC50 [2] [µM] | Compound
7 | < 0.1 | 0.1 to 0.5 | O=C(NCc1ccc(C(F)(F)F)nc1)c1cn(CCCCc2cc3c(-c4ccoc4)c(C4CC4)[nH]c3nn2)nn1 [Example 188, 1-{4-[6-cyclopropyl-5-(furan-3-yl)-7H-pyrrolo[2,3-c]pyridazin-3-yl]butyl}-N-{[6-(trifluoromethyl)pyridin-3-yl]methyl}-1H-1,2,3-triazole-4-carboxamide]
8 | < 0.1 | < 0.1 | O=C(NCc1cncc(C(F)(F)F)c1)c1cn(CCCCc2cc3c(-c4ccoc4)c(C4CC4)[nH]c3nn2)nn1 [Example 189, 1-{4-[6-cyclopropyl-5-(furan-3-yl)-7H-pyrrolo[2,3-c]pyridazin-3-yl]butyl}-N-{[5-(trifluoromethyl)pyridin-3-yl]methyl}-1H-1,2,3-triazole-4-carboxamide]
9 | < 0.1 | < 0.1 | O=C(NCc1cccc(OC(F)(F)F)c1)c1cn(CCCCc2cc3c(C4=CCOCC4)c(C4CC4)[nH]c3nn2)nn1 [Example 195, 1-{4-[6-cyclopropyl-5-(3,6-dihydro-2H-pyran-4-yl)-7H-pyrrolo[2,3-c]pyridazin-3-yl]butyl}-N-{[3-(trifluoromethoxy)phenyl]methyl}-1H-1,2,3-triazole-4-carboxamide]
10 | < 0.1 | 0.1 to 0.5 | Cc1ccc(CNC(=O)c2cn(CCCCc3cc4c(C5=CCOCC5)c(C5CC5)[nH]c4nn3)nn2)cn1 [Example 196, 1-{4-[6-cyclopropyl-5-(3,6-dihydro-2H-pyran-4-yl)-7H-pyrrolo[2,3-c]pyridazin-3-yl]butyl}-N-[(6-mcthylpyridin-3-yl)methyl]-1H-1,2,3-triazole-4-carboxamide]
